Source: publication PMC11024012, “Design, synthesis, and biochemical and computational screening of novel oxindole derivatives as inhibitors of Aurora A kinase and SARS-CoV-2 spike/host ACE2 interaction” (Medicinal Chemistry Research, 2024)
Values joined by “and” are separate entries in the source; they are usually repeats but may differ in a detail not shown here. Equal entries are not always repeated. Where two headings read alike, the source gives them in different places.

How the values were obtained:
[1] = molecular target: T1, SARS-CoV-2 Spike RBD/ACE2 (Homo sapiens, UniProt Q9BYF1); test: biochemical; type: binding, SARS-CoV-2 (Wuhan / USA-WA/2020 wild-type) spike; human ACE2; conditions: for inhibition at 32 µM: read-out: Spike RBD/ACE2 Percent block at 32 μM
T1 construct: 5 nM HIS-tagged SARS-CoV-2 Spike-RBDs; purchased Sino Biological

Aurora A kinase = molecular target: T2, Aurora A kinase (Homo sapiens, UniProt O14965); test: Aurora A kinase inhibition assay (HTRF kinase assay / Z′-LYTE Kinase Assay Kit ser/thr 01 peptide); type: biochemical; conditions: for inhibition at 32 µM: 32 μM compound, read-out: Aurora A Kinase Percent block at 32 μM; for IC50: ATP 500 μM, Aurora A kinase 2.7–4.7 nM
T2 sequence (O14965 1-403): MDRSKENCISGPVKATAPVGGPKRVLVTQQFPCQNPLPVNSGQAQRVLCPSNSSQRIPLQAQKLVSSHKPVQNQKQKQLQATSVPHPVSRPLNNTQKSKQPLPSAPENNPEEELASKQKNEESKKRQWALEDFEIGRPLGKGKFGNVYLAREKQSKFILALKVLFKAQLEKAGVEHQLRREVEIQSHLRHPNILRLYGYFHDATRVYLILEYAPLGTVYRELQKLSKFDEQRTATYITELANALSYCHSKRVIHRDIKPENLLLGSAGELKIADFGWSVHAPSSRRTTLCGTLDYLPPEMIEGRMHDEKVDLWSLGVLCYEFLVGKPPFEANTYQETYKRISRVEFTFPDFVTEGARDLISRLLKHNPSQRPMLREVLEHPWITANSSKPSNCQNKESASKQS
Method: The activities of the synthesized compounds were evaluated using Invitrogen Z′-LYTE® Kinase Assay Kitser/thr 01 peptide. The bioassay was performed using Aurora A kinase at an optimum concentration of 2.7–4.7 nM and ATP at a concentration of 500 μM. Stock solutions of molecules were prepared at 10 mM in DMSO, and then serially diluted in buffer solution to yield final hit concentrations ranging from 0.01 μM to 100 μM. […] The percentage of inhibition and IC50 value were calculated using nonlinear regression of the log (concentration) vs inhibition percentage values using GraphPad Prism 7.04.

T1 sequence (Q9BYF1 18-740): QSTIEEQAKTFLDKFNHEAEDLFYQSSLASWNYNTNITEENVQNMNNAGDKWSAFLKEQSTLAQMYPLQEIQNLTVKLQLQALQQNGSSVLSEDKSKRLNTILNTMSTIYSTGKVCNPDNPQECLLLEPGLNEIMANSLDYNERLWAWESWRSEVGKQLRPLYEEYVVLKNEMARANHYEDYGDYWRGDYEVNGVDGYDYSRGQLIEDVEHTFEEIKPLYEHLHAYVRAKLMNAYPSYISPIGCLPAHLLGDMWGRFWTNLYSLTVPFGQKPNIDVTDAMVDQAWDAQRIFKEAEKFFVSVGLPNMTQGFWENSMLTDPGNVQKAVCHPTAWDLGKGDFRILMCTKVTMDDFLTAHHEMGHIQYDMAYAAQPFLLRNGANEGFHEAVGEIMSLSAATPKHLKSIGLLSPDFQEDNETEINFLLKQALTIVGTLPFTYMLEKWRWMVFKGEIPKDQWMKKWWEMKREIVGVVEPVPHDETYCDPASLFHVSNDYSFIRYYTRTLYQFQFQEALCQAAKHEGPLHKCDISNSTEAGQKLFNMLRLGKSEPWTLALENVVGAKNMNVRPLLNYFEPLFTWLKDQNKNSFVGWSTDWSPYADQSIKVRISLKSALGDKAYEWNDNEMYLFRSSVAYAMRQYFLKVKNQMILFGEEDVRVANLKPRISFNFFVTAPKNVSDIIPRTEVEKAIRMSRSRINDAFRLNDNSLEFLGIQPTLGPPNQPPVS

Compound: CC(=O)Nc1ccc2c(c1)/C(=N\Nc1ccc(C)cc1)C(=O)N2 [Compound 6a, (E)-N-(2-oxo-3-(2-(p-tolyl)hydrazineylidene)indolin-5-yl)acetamide]
- inhibition at 32 µM [1]: 21.5 ± 4.8%
- inhibition at 32 µM (Aurora A kinase): 82.7 ± 2.7%
- IC50 (Aurora A kinase): 0.8 ± 0.1 µM

Compound: CC1(C)COC2(OC1)C(=O)Nc1ccc(NC(=O)Cc3ccc(Cl)cc3)cc12 [Compound 4b, 2-(4-chlorophenyl)-N-(5’,5’-dimethyl-2-oxospiro[indoline-3,2’-[1,3]dioxan]-5-yl)acetamide]
- inhibition at 32 µM [1]: 20.1 ± 11.5%
- inhibition at 32 µM (Aurora A kinase): 20.9 ± 6.3%

Compound: CC1(C)COC2(OC1)C(=O)Nc1ccc(NC(=O)CCN3CCOCC3)cc12 [Compound 4c, N-(5’,5’-dimethyl-2-oxospiro[indoline-3,2’-[1,3]dioxan]-5-yl)-3-morpholinopropanamide]
- inhibition at 32 µM [1]: 2 ± 2.9%
- inhibition at 32 µM (Aurora A kinase): 1.6 ± 2.1%

Compound: CC(=O)Nc1ccc2c(c1)/C(=N\Nc1ccc(Cl)cc1Cl)C(=O)N2 [Compound 6b, (E)-N-(3-(2-(2,4-dichlorophenyl)hydrazineylidene)-2-oxoindolin-5-yl)acetamide]
- inhibition at 32 µM [1]: 21.5 ± 6.2%
- inhibition at 32 µM (Aurora A kinase): 26.4 ± 0.6%

Compound: O=C(CCN1CCOCC1)Nc1ccc2c(c1)/C(=N\Nc1ccc(Cl)cc1Cl)C(=O)N2 [Compound 6h, (E)-N-(3-(2-(2,4-dichlorophenyl)hydrazineylidene)-2-oxoindolin-5-yl)-3-morpholinopropanamide]
- inhibition at 32 µM [1]: 21.3 ± 5.6%
- inhibition at 32 µM (Aurora A kinase): 10.3 ± 7.1%

Compound: CCS(=O)(=O)Nc1ccc2c(c1)/C(=C(/Nc1ccc(CN3CCCCC3)cc1)c1ccccc1)C(=O)N2 [Hesperadin, reference compound]
- inhibition at 32 µM [1]: 43.3 ± 10.6%
- inhibition at 32 µM (Aurora A kinase): 93.8 ± 0.8%
- IC50 (Aurora A kinase): 0.0053 ± 0.0027 µM

Compound: O=C1Nc2ccc(NC(=O)c3ccc(Cl)cc3)cc2/C1=N\Nc1ccc(Cl)cc1Cl [Compound 6k, (E)-4-chloro-N-(3-(2-(2,4-dichlorophenyl)hydrazineylidene)-2-oxoindolin-5-yl)benzamide]
- inhibition at 32 µM [1]: 34.4 ± 20.4%
- inhibition at 32 µM (Aurora A kinase): 13.4 ± 14.6%

Compound: Cc1ccc(N/N=C2/C(=O)Nc3ccc(NC(=O)c4ccc(Cl)cc4)cc32)cc1 [Compound 6j, (E)-4-chloro-N-(2-oxo-3-(2-(p-tolyl)hydrazineylidene)indolin-5-yl)benzamide]
- inhibition at 32 µM [1]: 2.8 ± 4%
- inhibition at 32 µM (Aurora A kinase): 13.2 ± 8.2%

Compound: O=C(Cc1ccc(Cl)cc1)Nc1ccc2c(c1)/C(=N\Nc1ccc(Cl)cc1Cl)C(=O)N2 [Compound 6e, (E)-2-(4-chlorophenyl)-N-(3-(2-(2,4-dichlorophenyl)hydrazineylidene)-2-oxoindolin-5-yl)acetamide]
- inhibition at 32 µM [1]: 10.4 ± 12.1%
- inhibition at 32 µM (Aurora A kinase): 10 ± 4.9%

Compound: CC(=O)Nc1ccc2c(c1)C1(OCC(C)(C)CO1)C(=O)N2 [Compound 4a, N-(5’,5’-dimethyl-2-oxospiro[indoline-3,2’-[1,3]dioxan]-5-yl)acetamide]
- inhibition at 32 µM [1]: 0%
- inhibition at 32 µM (Aurora A kinase): 9.1 ± 6.5%

Compound: CC1(C)COC2(OC1)C(=O)Nc1ccc(NC(=O)c3ccc(Cl)cc3)cc12 [Compound 4d, 4-chloro-N-(5’,5’-dimethyl-2-oxospiro[indoline-3,2’-[1,3]dioxan]-5-yl)benzamide]
- inhibition at 32 µM [1]: 22.5 ± 5.7%
- inhibition at 32 µM (Aurora A kinase): 17.8 ± 9.2%

Compound: Hopeaphenol [reference compound]
- Spike RBD/ACE2 Percent block at 32 μM [1]: 83.6 ± 2.0%
- IC50 ([1]; read-out: Spike RBD/ACE2 IC50): 0.3 ± 0.1 µM

Compound: O=C(Cc1ccc(Cl)cc1)Nc1ccc2c(c1)/C(=N\Nc1ccc(C(F)(F)F)cc1)C(=O)N2 [Compound 6f, (E)-2-(4-chlorophenyl)-N-(2-oxo-3-(2-(4(trifluoromethyl)phenyl)hydrazineylidene)indolin-5-yl)acetamide]
- inhibition at 32 µM [1]: 27.1 ± 3.9%
- inhibition at 32 µM (Aurora A kinase): 87.8 ± 2.9%
- IC50 (Aurora A kinase): 1.8 ± 0.2 µM

Compound: O=C1Nc2ccc(NC(=O)c3ccc(Cl)cc3)cc2/C1=N\Nc1ccc(C(F)(F)F)cc1 [Compound 6l, (E)-4-chloro-N-(2-oxo-3-(2-(4(trifluoromethyl)phenyl)hydrazineylidene)indolin-5-yl)benzamide]
- inhibition at 32 µM [1]: 44.2 ± 9%
- inhibition at 32 µM (Aurora A kinase): 19.4 ± 13.5%

Compound: CC(=O)Nc1ccc2c(c1)/C(=N\Nc1ccncc1)C(=O)N2 [Compound 6c, (E)-N-(2-oxo-3-(2-(pyridine-4-yl)hydrazineylidene)indolin-5-yl)acetamide]
- inhibition at 32 µM [1]: 5.2 ± 4.1%
- inhibition at 32 µM (Aurora A kinase): 58.1 ± 1.7%
- IC50 (Aurora A kinase): 5.5 ± 0.5 µM

Compound: Cc1ccc(N/N=C2/C(=O)Nc3ccc(NC(=O)Cc4ccc(Cl)cc4)cc32)cc1 [Compound 6d, (E)-2-(4-chlorophenyl)-N-(2-oxo-3-(2-(p-tolyl)hydrazineylidene)indolin-5-yl)acetamide]
- inhibition at 32 µM [1]: 3.2 ± 0.4%
- inhibition at 32 µM (Aurora A kinase): 54.2 ± 6.7%
- IC50 (Aurora A kinase): 22.8 ± 7.9 µM

Compound: O=C1Nc2ccc(NC(=O)c3ccc(Cl)cc3)cc2/C1=N\Nc1ccncc1 [Compound 6m, (E)-4-chloro-N-(2-oxo-3-(2-(pyridine-4-yl)hydrazineylidene)indolin-5-yl)benzamide]
- inhibition at 32 µM [1]: 0%
- inhibition at 32 µM (Aurora A kinase): 80.2 ± 1.2%
- IC50 (Aurora A kinase): 3.1 ± 1.3 µM

Compound: O=C(CCN1CCOCC1)Nc1ccc2c(c1)/C(=N\Nc1ccc(C(F)(F)F)cc1)C(=O)N2 [Compound 6i, (E)-3-morpholino-N-(2-oxo-3-(2-(4(trifluoromethyl)phenyl)hydrazineylidene)indolin-5-yl)propanamide]
- IC50 ([1]; Spike RBD/ACE2 IC50): 12.1 ± 2.9 µM
- IC50 ([1]; read-out: Spike RBD/ACE2 IC50): < 30 µM and 22.4 µM
- inhibition at 32 µM [1]: 64.5 ± 9%
- inhibition at 32 µM (Aurora A kinase): 79.3 ± 1.5%
- IC50 (Aurora A kinase): 4.8 ± 0.3 µM
